Measurements taken from PMC6893898, “Receptor Interaction Profiles of 4-Alkoxy-Substituted 2,5-Dimethoxyphenethylamines and Related Amphetamines” (Frontiers in Pharmacology, 2019).
“Also recorded” adds a separate entry of the source. Where two headings read alike, the source gives them in different places.

How the values were obtained:
[1] = biological target: T1, 5-HT1A receptor (Homo sapiens, UniProt P08908); assay: Radioligand binding, 5-HT1A receptor ([3H]8-OH-DPAT)
T1 construct: expressed in transfected cells; host or cells: HEK 293 (membrane preparation)
T1 sequence (P08908 1-422): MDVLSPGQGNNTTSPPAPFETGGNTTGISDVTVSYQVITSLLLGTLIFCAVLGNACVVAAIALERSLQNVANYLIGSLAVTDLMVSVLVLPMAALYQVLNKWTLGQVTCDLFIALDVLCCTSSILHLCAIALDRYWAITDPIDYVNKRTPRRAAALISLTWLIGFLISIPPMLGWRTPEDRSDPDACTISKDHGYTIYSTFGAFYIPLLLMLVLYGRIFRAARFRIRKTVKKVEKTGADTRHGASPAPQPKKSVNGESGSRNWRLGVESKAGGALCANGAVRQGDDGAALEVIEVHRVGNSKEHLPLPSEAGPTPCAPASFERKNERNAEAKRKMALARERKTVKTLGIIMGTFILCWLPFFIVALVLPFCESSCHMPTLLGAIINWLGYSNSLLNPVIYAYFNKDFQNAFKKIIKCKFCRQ

[2] = biological target: T2, human 5-HT2B receptor (Homo sapiens, UniProt P41595); assay: Activity at the 5-HT2B receptor (FLIPR calcium, HEK 293 cells); type: cell-based
T2 construct: expressed in transfected cells; host or cells: HEK 293
Description: Activity at the 5-HT2B receptor was examined as previously described ([Luethi et al., 2018]). In summary, HEK 293 cells expressing the human 5-HT2B receptor were seeded at a density of 50,000 cells per well in 96-well poly-D-lysine-coated plates overnight at 37°C. The cells were then incubated in growth medium consisting of high glucose Dulbecco’s modified Eagle’s medium (DMEM) (Invitrogen, Zug, Switzerland), 10% fetal calf serum (non-dialyzed, heat-inactivated), 250 mg/l Geneticin and 10 ml/l PenStrep (Gibco), overnight at 37°C. After removal of the growth medium via snap inversion, calcium indicator Fluo-4-solution (100 µl) was injected into each well (Molecular Probes, Eugene, OR, USA) and incubated for 45 min at 31°C. Afterwards, the Fluo-4 solution was removed (snap inversion) and a further 100 µl of the Fluo-4 solution was added and incubated (45 min, 31°C). Thereafter, using the EMBLA cell washer, the cells were washed just before testing with HBSS and 20 mM HEPES and exposed to 100 µl of assay buffer. The well plate was positioned in the FLIPR and while online, 25 µl of the test compounds diluted in assay buffer were added. Concentration-response curves were calculated using nonlinear regression, and EC50 values were obtained. The maximal activity at the receptors was calculated relative to 5-HT activity which was defined as 100%.

[3] = biological target: T3, rat TAAR1 (Rattus norvegicus, UniProt Q923Y9); assay: Radioligand binding, rat TAAR1 ([3H]RO5166017)
T3 construct: expressed in transfected cells; host or cells: HEK 293 (membrane preparation)

[4] = biological target: T4, mouse TAAR1 (Mus musculus, UniProt Q923Y8); assay: Radioligand binding, mouse TAAR1 ([3H]RO5166017)
T4 construct: expressed in transfected cells; host or cells: HEK 293 (membrane preparation)

[5] = biological target: T5, α1A adrenergic receptor (Homo sapiens, UniProt P35348); assay: Radioligand binding, α1A adrenergic receptor ([3H]prazosin)
T5 construct: expressed in transfected cells; host or cells: Chinese hamster ovary cell line (membrane preparation)
T5 sequence (P35348 1-466): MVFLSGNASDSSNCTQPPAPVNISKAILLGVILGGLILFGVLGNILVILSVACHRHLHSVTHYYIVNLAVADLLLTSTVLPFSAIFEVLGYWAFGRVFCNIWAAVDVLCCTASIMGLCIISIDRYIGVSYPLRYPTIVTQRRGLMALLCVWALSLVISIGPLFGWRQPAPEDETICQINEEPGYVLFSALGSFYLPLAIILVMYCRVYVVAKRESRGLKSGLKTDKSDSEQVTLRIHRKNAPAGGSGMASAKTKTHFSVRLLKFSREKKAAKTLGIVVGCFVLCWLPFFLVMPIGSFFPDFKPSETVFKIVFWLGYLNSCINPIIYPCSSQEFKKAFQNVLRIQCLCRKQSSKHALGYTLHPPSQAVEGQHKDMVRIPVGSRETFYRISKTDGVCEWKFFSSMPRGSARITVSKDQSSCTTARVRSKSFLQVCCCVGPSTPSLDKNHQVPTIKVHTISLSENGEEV

[6] = biological target: T6, α2A adrenergic receptor (Homo sapiens, UniProt P08913); assay: Radioligand binding, α2A adrenergic receptor ([3H]rauwolscine)
T6 construct: expressed in transfected cells; host or cells: Chinese hamster lung cell line (membrane preparation)
T6 sequence (P08913 1-465): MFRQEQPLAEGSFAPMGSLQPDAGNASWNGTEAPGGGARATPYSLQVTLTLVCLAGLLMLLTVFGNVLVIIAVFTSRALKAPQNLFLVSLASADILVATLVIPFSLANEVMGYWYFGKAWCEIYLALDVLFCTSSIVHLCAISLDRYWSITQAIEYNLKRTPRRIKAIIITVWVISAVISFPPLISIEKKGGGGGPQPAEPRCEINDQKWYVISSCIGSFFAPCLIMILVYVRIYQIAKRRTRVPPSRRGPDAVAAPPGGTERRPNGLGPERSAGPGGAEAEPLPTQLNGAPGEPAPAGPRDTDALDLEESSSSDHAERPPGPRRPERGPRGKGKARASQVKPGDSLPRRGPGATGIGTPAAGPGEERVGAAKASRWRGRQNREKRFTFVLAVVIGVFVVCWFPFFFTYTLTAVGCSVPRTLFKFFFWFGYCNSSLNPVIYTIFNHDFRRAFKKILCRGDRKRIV

[7] = biological target: T7, dopaminergic D2 receptor (Homo sapiens, UniProt P14416); assay: Radioligand binding, dopaminergic D2 receptor ([3H]spiperone)
T7 construct: expressed in transfected cells; host or cells: HEK 293 (membrane preparation)

[8] = test system: humans; settings: ref Shulgin and Shulgin, 1991, cited from earlier work; for Psychoactivity in humans: at the doses tested
[9] = test system: head-twitch response; parameters: method as in Halberstadt et al., 2019; settings: ref Halberstadt et al., 2019; cited from earlier work
[10] = biological target: T8, hNET (Homo sapiens, UniProt P23975); assay: Radioligand binding, NET (N-methyl-[3H]nisoxetine); parameters: expressed in transfected cells; host or cells: HEK 293 (membrane preparation)
[11] = biological target: T9, hDAT (Homo sapiens, UniProt Q01959); assay: Radioligand binding, DAT ([3H]WIN35,428); parameters: expressed in transfected cells; host or cells: HEK 293 (membrane preparation)
[12] = biological target: T10, hSERT (Homo sapiens, UniProt P31645); assay: Radioligand binding, SERT ([3H]citalopram); parameters: expressed in transfected cells; host or cells: HEK 293 (membrane preparation)
[13] = biological target: T1, 5-HT1A receptor; settings: cited from earlier work
[14] = biological target: T2, human 5-HT2B receptor; parameters: method as in Luethi et al., 2018; settings: ref Luethi et al., 2018, cited from earlier work
[15] = biological target: T3, rat TAAR1; parameters: method as in Simmler et al., 2013; settings: read-out: rat TAAR1 Ki ± SD; [3H]RO5166017; ref Simmler et al., 2013; cited from earlier work
[16] = biological target: T4, mouse TAAR1; parameters: method as in Simmler et al., 2013; settings: read-out: mouse TAAR1 Ki ± SD; [3H]RO5166017; ref Simmler et al., 2013; cited from earlier work
[17] = biological target: T5, α1A adrenergic receptor; parameters: method as in Simmler et al., 2013; settings: read-out: α1A Ki ± SD; [3H]prazosin; ref Simmler et al., 2013; cited from earlier work
[18] = biological target: T6, α2A adrenergic receptor; parameters: method as in Simmler et al., 2013; settings: read-out: α2A Ki ± SD; [3H]rauwolscine; ref Simmler et al., 2013; cited from earlier work
[19] = biological target: T7, dopaminergic D2 receptor; parameters: method as in Simmler et al., 2013; settings: read-out: D2 Ki ± SD; [3H]spiperone; ref Simmler et al., 2013; cited from earlier work
[20] = biological target: T10, hSERT; assay: Monoamine uptake transporter inhibition, [3H]5-HT, HEK 293 cells; settings: 10 µM
[21] = biological target: T9, hDAT; assay: Monoamine uptake transporter inhibition, [3H]dopamine, HEK 293 cells; settings: 10 µM
[22] = biological target: T8, hNET; assay: Monoamine uptake transporter inhibition, [3H]norepinephrine, HEK 293 cells; settings: 10 µM
[23] = biological target: T8, hNET; parameters: expressed in transfected cells; host or cells: HEK 293 (membrane preparation); method as in Simmler et al., 2013; settings: read-out: hNET Ki ± SD; N-methyl-[3H]nisoxetine; ref Simmler et al., 2013; cited from earlier work
[24] = biological target: T9, hDAT; parameters: expressed in transfected cells; host or cells: HEK 293 (membrane preparation); method as in Simmler et al., 2013; settings: [3H]WIN35,428; ref Simmler et al., 2013; read-out: hDAT Ki ± SD; cited from earlier work
[25] = biological target: T9, hDAT; parameters: expressed in transfected cells; host or cells: HEK 293 (membrane preparation); settings: read-out: DAT uptake inhibition EC50; known low potency in this assay; no reference given; cited from earlier work

T2 sequence (P41595 whole entry): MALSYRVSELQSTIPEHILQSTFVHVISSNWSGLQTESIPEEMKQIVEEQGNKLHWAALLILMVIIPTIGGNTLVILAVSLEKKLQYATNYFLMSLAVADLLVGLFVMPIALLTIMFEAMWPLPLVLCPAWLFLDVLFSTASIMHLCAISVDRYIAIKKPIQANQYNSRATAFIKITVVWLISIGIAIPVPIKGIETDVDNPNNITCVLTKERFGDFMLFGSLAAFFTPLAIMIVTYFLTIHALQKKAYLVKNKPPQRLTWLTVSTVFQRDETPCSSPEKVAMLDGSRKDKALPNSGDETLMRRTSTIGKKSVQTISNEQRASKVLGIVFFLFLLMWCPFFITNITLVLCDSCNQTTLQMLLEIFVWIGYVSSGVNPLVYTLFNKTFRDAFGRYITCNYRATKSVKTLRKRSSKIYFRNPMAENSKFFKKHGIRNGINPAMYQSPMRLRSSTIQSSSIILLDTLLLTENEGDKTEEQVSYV
T9 sequence (Q01959 whole entry): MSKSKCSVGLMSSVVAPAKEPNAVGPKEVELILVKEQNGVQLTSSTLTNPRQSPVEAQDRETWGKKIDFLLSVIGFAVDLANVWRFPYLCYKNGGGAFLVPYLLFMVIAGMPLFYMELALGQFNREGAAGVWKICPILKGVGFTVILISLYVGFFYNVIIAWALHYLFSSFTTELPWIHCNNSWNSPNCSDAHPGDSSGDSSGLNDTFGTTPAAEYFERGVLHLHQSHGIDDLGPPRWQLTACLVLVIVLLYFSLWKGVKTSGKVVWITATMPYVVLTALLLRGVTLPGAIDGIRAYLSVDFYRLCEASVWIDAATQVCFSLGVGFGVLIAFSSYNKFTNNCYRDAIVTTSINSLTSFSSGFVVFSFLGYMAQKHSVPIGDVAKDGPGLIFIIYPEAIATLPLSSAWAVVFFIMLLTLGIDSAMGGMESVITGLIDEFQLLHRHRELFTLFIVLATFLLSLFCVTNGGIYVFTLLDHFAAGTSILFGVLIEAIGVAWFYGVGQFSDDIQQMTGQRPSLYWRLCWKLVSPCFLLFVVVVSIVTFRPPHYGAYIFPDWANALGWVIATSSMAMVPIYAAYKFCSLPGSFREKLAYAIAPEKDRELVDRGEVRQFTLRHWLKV
T8 sequence (P23975 whole entry): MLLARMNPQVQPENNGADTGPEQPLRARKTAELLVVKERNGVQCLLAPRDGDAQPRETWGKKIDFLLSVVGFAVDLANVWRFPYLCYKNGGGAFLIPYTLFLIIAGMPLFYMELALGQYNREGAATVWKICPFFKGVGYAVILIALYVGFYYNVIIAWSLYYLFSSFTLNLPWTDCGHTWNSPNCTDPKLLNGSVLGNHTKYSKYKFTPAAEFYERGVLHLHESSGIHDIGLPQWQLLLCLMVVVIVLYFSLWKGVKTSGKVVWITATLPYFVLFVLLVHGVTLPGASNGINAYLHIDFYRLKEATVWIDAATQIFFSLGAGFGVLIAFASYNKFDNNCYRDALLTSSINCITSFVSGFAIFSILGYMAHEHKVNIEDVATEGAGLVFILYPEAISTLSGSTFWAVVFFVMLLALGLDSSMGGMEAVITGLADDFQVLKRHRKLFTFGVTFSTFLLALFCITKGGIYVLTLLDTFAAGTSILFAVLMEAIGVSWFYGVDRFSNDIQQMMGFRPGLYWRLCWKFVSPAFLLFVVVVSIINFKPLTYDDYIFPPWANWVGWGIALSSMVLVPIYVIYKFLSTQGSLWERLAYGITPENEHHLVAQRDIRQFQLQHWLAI
T7 sequence (P14416 whole entry): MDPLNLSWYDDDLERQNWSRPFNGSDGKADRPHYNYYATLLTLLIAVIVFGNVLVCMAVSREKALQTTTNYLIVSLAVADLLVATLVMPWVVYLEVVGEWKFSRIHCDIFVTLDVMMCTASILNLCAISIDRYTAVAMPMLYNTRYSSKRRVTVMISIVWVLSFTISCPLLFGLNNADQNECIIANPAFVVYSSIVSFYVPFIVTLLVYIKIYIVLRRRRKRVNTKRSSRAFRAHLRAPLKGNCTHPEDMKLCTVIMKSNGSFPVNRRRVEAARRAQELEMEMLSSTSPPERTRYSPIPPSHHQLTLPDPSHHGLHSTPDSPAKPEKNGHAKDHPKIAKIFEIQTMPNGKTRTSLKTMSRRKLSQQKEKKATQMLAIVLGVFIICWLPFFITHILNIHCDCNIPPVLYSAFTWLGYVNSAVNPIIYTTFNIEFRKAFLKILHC
T10 sequence (P31645 whole entry): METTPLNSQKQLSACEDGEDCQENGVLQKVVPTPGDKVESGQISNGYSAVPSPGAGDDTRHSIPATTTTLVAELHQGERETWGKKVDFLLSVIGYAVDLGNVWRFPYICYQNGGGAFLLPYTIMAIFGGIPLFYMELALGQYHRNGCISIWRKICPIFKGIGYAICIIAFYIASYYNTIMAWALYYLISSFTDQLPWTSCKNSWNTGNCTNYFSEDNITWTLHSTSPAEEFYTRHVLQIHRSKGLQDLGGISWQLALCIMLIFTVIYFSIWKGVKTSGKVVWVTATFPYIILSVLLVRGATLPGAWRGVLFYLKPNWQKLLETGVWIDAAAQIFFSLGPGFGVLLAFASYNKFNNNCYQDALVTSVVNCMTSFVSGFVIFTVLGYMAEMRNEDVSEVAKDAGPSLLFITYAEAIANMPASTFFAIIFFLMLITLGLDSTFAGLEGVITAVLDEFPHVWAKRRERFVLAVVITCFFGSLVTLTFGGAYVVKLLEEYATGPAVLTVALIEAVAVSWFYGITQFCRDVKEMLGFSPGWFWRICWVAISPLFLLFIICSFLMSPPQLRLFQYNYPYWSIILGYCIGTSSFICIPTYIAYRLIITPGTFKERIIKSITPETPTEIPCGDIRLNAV
T3 sequence (Q923Y9 whole entry): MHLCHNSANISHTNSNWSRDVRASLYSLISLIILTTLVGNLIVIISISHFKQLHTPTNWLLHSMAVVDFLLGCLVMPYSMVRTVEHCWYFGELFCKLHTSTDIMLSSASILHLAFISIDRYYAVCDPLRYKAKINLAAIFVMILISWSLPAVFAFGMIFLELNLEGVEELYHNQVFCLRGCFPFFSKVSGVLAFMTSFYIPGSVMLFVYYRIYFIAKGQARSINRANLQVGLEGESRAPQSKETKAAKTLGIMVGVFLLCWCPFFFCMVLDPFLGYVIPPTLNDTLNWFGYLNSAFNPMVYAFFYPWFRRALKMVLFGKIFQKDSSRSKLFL
T4 sequence (Q923Y8 whole entry): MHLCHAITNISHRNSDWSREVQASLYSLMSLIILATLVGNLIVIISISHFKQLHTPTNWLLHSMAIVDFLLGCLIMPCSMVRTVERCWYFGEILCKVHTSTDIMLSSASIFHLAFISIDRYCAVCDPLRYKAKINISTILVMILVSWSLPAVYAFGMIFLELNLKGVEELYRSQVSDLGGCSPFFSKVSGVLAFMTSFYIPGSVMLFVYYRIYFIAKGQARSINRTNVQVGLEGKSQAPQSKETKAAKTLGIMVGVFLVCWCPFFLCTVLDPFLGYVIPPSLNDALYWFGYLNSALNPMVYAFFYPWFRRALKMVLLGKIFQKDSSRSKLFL

COc1cc(OC)c(OC)cc1CC(C)N (stereo not shown) [TMA-2, 2,4,5-trimethoxyamphetamine]
Ki [1]: > 17 µM
EC50 [2]: 0.27 µM
Emax ([2]; HEK293, relative to 5-HT = 100%, read-out: h5-HT2B Activation efficacy max ± SD): 78 ± 5%
Ki [3]: 3.1 ± 0.1 µM
Ki [4]: > 4.4 µM
Ki [5]: > 6.5 µM
Ki [6]: > 4.7 µM
Ki [7]: > 13 µM
Psychoactivity in humans [8]: displayed psychedelic activity
Potency in humans relative to 3,4,5-trimethoxyamphetamine (TMA) ([8]; EMCDDA, 2004): roughly 6 times
Behavioral potency in head-twitch response [9]: equipotent
Ki [10]: > 8.7 µM
Ki [11]: > 8.5 µM
Ki [12]: > 7.5 µM

CC(N)Cc1ccccc1 (stereo not shown) [amphetamine]
Ki ([13]; read-out: 5-HT1A receptor Ki, ref Simmler et al., 2013): 6.7 µM

COc1cc(OC(C)C)c(OC)cc1CCN [2C-O-4, 2,5-dimethoxy-4-isopropoxyphenethylamine]
Psychoactivity in humans [8]: fairly inactive in humans; also recorded: not psychoactive in humans

COc1cc(CCN)cc(OC)c1OC [mescaline, 3,4,5-trimethoxyphenethylamine]
Psychoactive oral dose in humans ([8]; oral, humans): > 200 mg

COc1cc(OC)c(OC)cc1CCN [2C-O-1, 2,4,5-trimethoxyphenethylamine]
Psychoactivity in humans [8]: fairly inactive in humans; also recorded: not psychoactive in humans

COc1cc(CCN)c(OC)cc1Br [2C-B, 4-bromo-2,5-dimethoxyphenethylamine]
Ki ([13]; read-out: h5-HT1A Receptor binding Ki ± SD, [3H]8-OH-DPAT, ref Luethi et al., 2018): 0.311 ± 0.046 µM
EC50 ([14]; read-out: h5-HT2B Activation potency EC50 ± SD): 0.075 ± 0.014 µM
h5-HT2B Activation efficacy max ± SD ([14]; relative to 5-HT): 52 ± 26%

CCOc1cc(OC)c(CC(C)N)cc1OC (stereo not shown) [MEM, 2,5-dimethoxy-4-ethoxyamphetamine]
Psychoactivity in humans [8]: displayed psychedelic activity
Behavioral potency in head-twitch response [9]: equipotent

CCCCOc1cc(OC)c(CC(C)N)cc1OC (stereo not shown) [MBM, 4-butoxy-2,5-dimethoxyamphetamine]
Psychoactivity in humans [8]: no psychoactive effects

CCCOc1cc(OC)c(CC(C)N)cc1OC (stereo not shown) [MPM, 2,5-dimethoxy-4-propoxyampehtamine]
Psychoactivity in humans [8]: no psychoactive effects
Behavioral potency in head-twitch response [9]: equipotent

CNC(C)Cc1ccc2c(c1)OCO2 (stereo not shown) [MDMA]
Ki [15]: 0.37 ± 0.12 µM
Ki [16]: 2.4 ± 1.1 µM
Ki [17]: > 6 µM
Ki [18]: 15 ± 0.2 µM
Ki [19]: 25.2 ± 2 µM
Effect on 5-HT uptake into the cells [20]: markedly reduced
Effect on DA uptake into the cells [21]: moderately reduced
Effect on NE uptake into the cells [22]: markedly reduced
Ki [23]: 30.5 ± 8 µM
Ki [24]: 6.5 ± 2.5 µM
EC50 [25]: 17 µM
